Assay results: ChEMBL document CHEMBL6177968, “Development of sulfamoylbenzamide-based capsid assembly modulators for hepatitis B virus capsid assembly” (Eur J Med Chem, 2025); call rule not given here

How the values were obtained:
[1] = system: Hepatitis B virus; test: Antiviral activity against HBV in human HepG2.2.15 cells assessed as reduction in viral replication incubated for 5 days by real-time PCR analysis; type: functional, organism-based; conditions: HepG2.2.15, 120 h
[2] = Cytotoxicity in human HepG2.2.15 cells assessed as reduction in cell viability; type: toxicity, cell-based, HepG2 2.2.15
[3] = Selectivity index, ratio of CC50 for cytotoxicity in human HepG2.2.15 cells assessed as reduction in cell viability to EC50 for antiviral activity against HBV in human HepG2.2.15 cells assessed as reduction in viral replication; type: toxicity, cell-based; conditions: read-out: Ratio CC50/EC50
[4] = Metabolic stability in mouse liver microsomes assessed as compound remaining measured after 30 mins; type: ADME, Microsome; conditions: read-out: Stability
[5] = Metabolic stability in rat liver microsomes assessed as compound remaining measured after 30 mins; type: ADME, Microsome; conditions: read-out: Stability
[6] = Metabolic stability in human liver microsomes assessed as compound remaining measured after 30 mins; type: ADME, Microsome; conditions: read-out: Stability
[7] = Stability in mouse plasma assessed as compound remaining incubated for 4 hrs; type: ADME, cell-free; conditions: read-out: Stability
[8] = Stability in human plasma assessed as compound remaining incubated for 4 hrs; type: ADME, cell-free; conditions: read-out: Stability
[9] = Plasma protein binding in mouse; type: ADME, cell-free; conditions: read-out: PPB (converted)
[10] = Plasma protein binding in human; type: ADME, cell-free; conditions: read-out: PPB (converted)
[11] = Cytotoxicity in African green monkey Vero cells; type: toxicity, cell-based, Chlorocebus sabaeus
[12] = Cytotoxicity in HFL1 cells; type: toxicity, cell-based; conditions: human
[13] = Cytotoxicity in mouse L929 cells; type: toxicity, cell-based
[14] = Cytotoxicity in mouse NIH3T3 cells; type: toxicity, cell-based
[15] = Cytotoxicity in CHO-K1 cells; type: toxicity, cell-based, Cricetulus griseus; conditions: Chinese hamster
[16] = biological target: T1, Cytochrome P450 1A2 (Homo sapiens, UniProt P05177); test: Inhibition of CYP1A2 in human liver microsome; type: ADME, microsomes
T1 sequence (P05177 whole entry): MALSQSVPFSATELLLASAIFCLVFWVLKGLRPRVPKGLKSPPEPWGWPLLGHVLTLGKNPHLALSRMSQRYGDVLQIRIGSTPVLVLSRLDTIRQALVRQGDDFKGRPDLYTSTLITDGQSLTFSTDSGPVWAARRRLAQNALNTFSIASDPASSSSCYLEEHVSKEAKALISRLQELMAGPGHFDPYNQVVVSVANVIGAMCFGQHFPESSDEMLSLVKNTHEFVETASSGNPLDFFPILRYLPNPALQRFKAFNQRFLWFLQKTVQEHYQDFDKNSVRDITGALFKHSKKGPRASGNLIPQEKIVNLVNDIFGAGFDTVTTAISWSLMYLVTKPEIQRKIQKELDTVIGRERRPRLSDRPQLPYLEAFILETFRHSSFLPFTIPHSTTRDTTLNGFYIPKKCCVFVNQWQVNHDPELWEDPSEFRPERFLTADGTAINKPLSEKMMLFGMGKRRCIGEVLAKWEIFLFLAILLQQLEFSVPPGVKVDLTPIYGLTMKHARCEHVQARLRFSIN

[17] = biological target: Cytochrome P450 2C9 (Homo sapiens, UniProt P11712); test: Inhibition of CYP2C9 in human liver microsome; type: ADME, microsomes
Sequence of Cytochrome P450 2C9 (P11712 whole entry): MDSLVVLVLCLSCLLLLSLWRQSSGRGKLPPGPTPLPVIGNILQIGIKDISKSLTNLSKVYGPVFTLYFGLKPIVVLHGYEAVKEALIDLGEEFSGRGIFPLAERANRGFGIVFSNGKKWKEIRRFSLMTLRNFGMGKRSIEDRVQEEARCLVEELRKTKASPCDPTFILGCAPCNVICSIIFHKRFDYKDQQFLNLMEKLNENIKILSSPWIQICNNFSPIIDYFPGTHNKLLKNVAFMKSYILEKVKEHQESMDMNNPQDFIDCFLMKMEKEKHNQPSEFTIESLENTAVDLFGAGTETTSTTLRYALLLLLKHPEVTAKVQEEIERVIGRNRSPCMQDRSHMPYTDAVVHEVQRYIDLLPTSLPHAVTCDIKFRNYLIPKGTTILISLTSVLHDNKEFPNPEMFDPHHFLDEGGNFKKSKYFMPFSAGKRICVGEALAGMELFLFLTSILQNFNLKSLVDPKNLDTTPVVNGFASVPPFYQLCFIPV

[18] = biological target: Cytochrome P450 2C19 (Homo sapiens, UniProt P33261); test: Inhibition of CYP2C19 in human liver microsome; type: ADME, microsomes
Sequence of Cytochrome P450 2C19 (P33261 whole entry): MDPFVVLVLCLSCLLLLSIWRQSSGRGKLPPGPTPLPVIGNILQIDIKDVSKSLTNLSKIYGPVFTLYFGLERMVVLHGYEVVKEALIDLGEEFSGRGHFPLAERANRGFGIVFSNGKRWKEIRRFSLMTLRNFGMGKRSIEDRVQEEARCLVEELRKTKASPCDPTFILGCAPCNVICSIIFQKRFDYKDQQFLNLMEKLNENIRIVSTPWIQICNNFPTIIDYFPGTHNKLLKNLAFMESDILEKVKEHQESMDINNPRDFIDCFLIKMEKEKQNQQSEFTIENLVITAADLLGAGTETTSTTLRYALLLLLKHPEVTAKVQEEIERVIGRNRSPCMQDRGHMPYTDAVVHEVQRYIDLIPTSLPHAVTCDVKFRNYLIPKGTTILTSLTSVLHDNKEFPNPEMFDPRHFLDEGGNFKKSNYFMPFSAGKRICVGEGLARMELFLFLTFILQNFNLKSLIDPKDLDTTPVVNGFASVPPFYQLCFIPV

[19] = biological target: Cytochrome P450 2D6 (Homo sapiens, UniProt P10635); test: Inhibition of CYP2D6 in human liver microsome; type: ADME, microsomes
Sequence of Cytochrome P450 2D6 (P10635 whole entry): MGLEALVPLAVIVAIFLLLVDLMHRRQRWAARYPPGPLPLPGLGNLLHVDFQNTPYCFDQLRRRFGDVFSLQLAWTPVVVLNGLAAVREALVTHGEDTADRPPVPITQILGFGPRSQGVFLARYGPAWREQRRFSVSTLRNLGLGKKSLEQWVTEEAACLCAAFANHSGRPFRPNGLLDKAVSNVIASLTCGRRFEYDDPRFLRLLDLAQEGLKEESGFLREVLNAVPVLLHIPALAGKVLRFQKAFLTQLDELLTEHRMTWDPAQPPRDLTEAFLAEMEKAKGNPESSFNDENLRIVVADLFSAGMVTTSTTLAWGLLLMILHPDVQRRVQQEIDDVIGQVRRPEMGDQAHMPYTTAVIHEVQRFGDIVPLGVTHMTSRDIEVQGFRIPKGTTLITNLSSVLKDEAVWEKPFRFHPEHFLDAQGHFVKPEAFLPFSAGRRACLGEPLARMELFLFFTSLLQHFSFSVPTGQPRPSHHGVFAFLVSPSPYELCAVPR

[20] = biological target: Cytochrome P450 3A4 (Homo sapiens, UniProt P08684); test: Inhibition of CYP3A4 in human liver microsome; type: ADME, microsomes
Sequence of Cytochrome P450 3A4 (P08684 whole entry): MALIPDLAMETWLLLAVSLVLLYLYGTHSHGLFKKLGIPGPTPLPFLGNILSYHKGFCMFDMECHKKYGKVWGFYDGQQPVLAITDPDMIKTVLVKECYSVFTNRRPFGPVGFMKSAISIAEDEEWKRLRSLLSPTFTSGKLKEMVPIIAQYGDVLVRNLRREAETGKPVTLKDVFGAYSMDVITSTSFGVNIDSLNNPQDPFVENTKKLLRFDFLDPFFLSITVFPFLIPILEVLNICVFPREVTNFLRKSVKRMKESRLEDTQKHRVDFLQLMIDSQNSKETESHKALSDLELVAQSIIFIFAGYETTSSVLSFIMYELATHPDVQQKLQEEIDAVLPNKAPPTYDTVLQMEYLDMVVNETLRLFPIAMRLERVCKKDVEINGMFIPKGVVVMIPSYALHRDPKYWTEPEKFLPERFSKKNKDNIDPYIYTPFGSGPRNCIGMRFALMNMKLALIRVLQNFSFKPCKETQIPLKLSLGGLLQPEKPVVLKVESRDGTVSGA

[21] = biological target: Voltage-gated inwardly rectifying potassium channel KCNH2 (Homo sapiens, UniProt Q12809); test: Inhibition of human ERG; type: toxicity
Sequence of Voltage-gated inwardly rectifying potassium channel KCNH2 (Q12809 whole entry): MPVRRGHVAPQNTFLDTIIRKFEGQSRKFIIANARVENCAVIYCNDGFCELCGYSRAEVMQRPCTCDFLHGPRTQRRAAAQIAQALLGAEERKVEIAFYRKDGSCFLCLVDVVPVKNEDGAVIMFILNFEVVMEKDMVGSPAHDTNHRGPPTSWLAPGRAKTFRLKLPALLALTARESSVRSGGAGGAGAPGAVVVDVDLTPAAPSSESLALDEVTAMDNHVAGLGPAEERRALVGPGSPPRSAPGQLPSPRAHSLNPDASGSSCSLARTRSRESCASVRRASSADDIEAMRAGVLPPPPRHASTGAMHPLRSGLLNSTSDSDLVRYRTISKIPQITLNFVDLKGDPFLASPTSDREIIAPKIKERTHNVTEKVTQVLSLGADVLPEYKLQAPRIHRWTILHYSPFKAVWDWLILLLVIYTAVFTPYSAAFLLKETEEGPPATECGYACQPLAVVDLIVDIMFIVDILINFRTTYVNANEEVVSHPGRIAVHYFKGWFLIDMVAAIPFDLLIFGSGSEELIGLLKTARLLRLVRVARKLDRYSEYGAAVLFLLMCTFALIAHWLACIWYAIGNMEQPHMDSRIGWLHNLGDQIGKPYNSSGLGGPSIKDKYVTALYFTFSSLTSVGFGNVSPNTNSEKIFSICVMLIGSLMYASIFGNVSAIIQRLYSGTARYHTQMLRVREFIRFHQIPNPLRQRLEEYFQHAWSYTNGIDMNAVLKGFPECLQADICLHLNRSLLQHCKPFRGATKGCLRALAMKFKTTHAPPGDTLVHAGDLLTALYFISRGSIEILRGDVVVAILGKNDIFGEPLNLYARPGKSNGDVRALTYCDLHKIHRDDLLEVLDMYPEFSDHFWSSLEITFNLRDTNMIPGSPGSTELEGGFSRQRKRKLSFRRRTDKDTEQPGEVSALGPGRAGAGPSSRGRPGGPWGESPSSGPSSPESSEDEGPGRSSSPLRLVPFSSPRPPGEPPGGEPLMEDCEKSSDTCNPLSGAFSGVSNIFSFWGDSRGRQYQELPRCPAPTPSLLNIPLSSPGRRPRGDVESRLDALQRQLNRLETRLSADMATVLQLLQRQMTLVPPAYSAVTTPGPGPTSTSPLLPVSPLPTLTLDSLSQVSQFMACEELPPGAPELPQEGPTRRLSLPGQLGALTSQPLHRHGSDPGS

[22] = system: Hepatitis B virus; test: Antiviral activity against HBV in human HepG2 cells expressing NTCP assessed as reduction in viral replication; type: functional, organism-based
[23] = system: Hepatitis B virus; test: Antiviral activity against HBV in human HepaRG cells assessed as reduction in viral replication; type: functional, organism-based
[24] = Cytotoxicity in human HepG2-hNTCP cells assessed as reduction in cell viability; type: toxicity, cell-based
[25] = Cytotoxicity in human HepaRG cells assessed as reduction in cell viability; type: toxicity, cell-based
[26] = Selectivity index, ratio of CC50 for cytotoxicity in human HepG2-hNTCP cells assessed as reduction in cell viability to EC50 for antiviral activity against HBV in human HepG2-hNTCP cells assessed as reduction in viral replication; type: toxicity, cell-based; conditions: read-out: Ratio CC50/EC50
[27] = Selectivity index, ratio of CC50 for cytotoxicity in human HepaRG cells assessed as reduction in cell viability to EC50 for antiviral activity against HBV in human HepaRG cells assessed as reduction in viral replication; type: toxicity, cell-based; conditions: read-out: Ratio CC50/EC50
[28] = Half life in male mouse at 5 mg/kg, iv; type: ADME, organism-based; conditions: in vivo
[29] = AUClast in male mouse at 5 mg/kg, iv; type: ADME, organism-based; conditions: in vivo
[30] = AUC (0 to infinity) in male mouse at 5 mg/kg, iv; type: ADME, organism-based; conditions: in vivo
[31] = Clearance in male mouse at 5 mg/kg, iv; type: ADME, organism-based; conditions: in vivo
[32] = Volume of distribution at steady state in male mouse at 5 mg/kg, iv; type: ADME, organism-based; conditions: in vivo, read-out: Vdss
[33] = Half life in male mouse at 20 mg/kg, iv; type: ADME, organism-based; conditions: in vivo
[34] = AUClast in male mouse at 20 mg/kg, iv; type: ADME, organism-based; conditions: in vivo
[35] = AUC (0 to infinity) in male mouse at 20 mg/kg, iv; type: ADME, organism-based; conditions: in vivo
[36] = Clearance in male mouse at 20 mg/kg, iv; type: ADME, organism-based; conditions: in vivo
[37] = Volume of distribution at steady state in male mouse at 20 mg/kg, iv; type: ADME, organism-based; conditions: in vivo, read-out: Vdss
[38] = Tmax in male mouse at 5 mg/kg, po; type: ADME, organism-based; conditions: in vivo
[39] = Cmax in male mouse at 5 mg/kg, po; type: ADME, organism-based; conditions: in vivo
[40] = Half life in male mouse at 5 mg/kg, po; type: ADME, organism-based; conditions: in vivo
[41] = AUClast in male mouse at 5 mg/kg, po; type: ADME, organism-based; conditions: in vivo
[42] = AUC (0 to infinity) in male mouse at 5 mg/kg, po; type: ADME, organism-based; conditions: in vivo
[43] = Oral bioavailability in male mouse at 5 mg/kg; type: ADME, organism-based; conditions: in vivo
[44] = Tmax in male mouse at 20 mg/kg, po; type: ADME, organism-based; conditions: in vivo
[45] = Cmax in male mouse at 20 mg/kg, po; type: ADME, organism-based; conditions: in vivo
[46] = Half life in male mouse at 20 mg/kg, po; type: ADME, organism-based; conditions: in vivo
[47] = AUClast in male mouse at 20 mg/kg, po; type: ADME, organism-based; conditions: in vivo
[48] = AUC (0 to infinity) in male mouse at 20 mg/kg, po; type: ADME, organism-based; conditions: in vivo
[49] = Oral bioavailability in male mouse at 20 mg/kg; type: ADME, organism-based; conditions: in vivo
[50] = system: Hepatitis B virus; test: Antiviral activity against HBV infected in human HepG2 cells expressing NTCP assessed as viral DNA replication at 1 uM incubated for 6 days by Southern blot analysis (reference value: 100 %); type: functional; conditions: time 6 day
[51] = system: Hepatitis B virus; test: Antiviral activity against HBV infected in human HepG2 cells expressing NTCP assessed as fold reduction in capsid associated viral DNA level at 1 uM incubated for 6 days by Southern blot analysis relative to control; type: functional; conditions: time 6 day
[52] = system: Hepatitis B virus; test: Antiviral activity against HBV infected in human HepG2 cells expressing NTCP assessed as capsid level at 1 uM incubated for 6 days by Western blot analysis (reference value: 100 %); type: functional; conditions: time 6 day
[53] = system: Hepatitis B virus; test: Antiviral activity against HBV infected in human HepG2 cells expressing NTCP assessed as capsid associated HBV DNA level at 1 uM incubated for 6 days by Western blot analysis (reference value: 100 %); type: functional; conditions: time 6 day
[54] = system: HepG2; test: Effect on viral rcDNA level in human HepG2 cells expressing NTCP infected with HBV at 1 uM incubated for 6 days by Southern blot analysis; type: functional, cell-based; conditions: time 6.0 day
[55] = system: HepG2; test: Effect on viral dslDNA level in human HepG2 cells expressing NTCP infected with HBV at 1 uM incubated for 6 days by Southern blot analysis; type: functional, cell-based; conditions: time 6.0 day
[56] = system: HepG2; test: Effect on viral ssDNA level in human HepG2 cells expressing NTCP cells infected with HBV at 1 uM incubated for 6 days by Southern blot analysis; type: functional, cell-based; conditions: time 6.0 day
[57] = system: Hepatitis B virus; test: Antiviral activity against HBV infected in human HepG2 cells expressing NTCP assessed as fold increase in intracellular capsid level at 1 uM incubated for 6 days by Western blot analysis relative to control; type: functional; conditions: time 6 day
[58] = system: Hepatitis B virus; test: Antiviral activity against HBV infected in human HepG2 cells expressing NTCP assessed as decrease in intracellular HBc level at 1 uM incubated for 6 days by indirect immunofluorescence staining based analysis; type: functional, organism-based; conditions: time 6.0 day
[59] = system: Hepatitis B virus; test: Antiviral activity against HBV infected in human HepG2 cells expressing NTCP assessed as intracellular HBc level at 1 uM incubated for 6 days by Western blot analysis (reference value: 100 %); type: functional; conditions: time 6 day
[60] = system: Hepatitis B virus; test: Antiviral activity against HBV infected in human HepG2 cells expressing NTCP assessed as ratio of capsid associated HBV DNA level at 1 uM incubated for 6 days by Western blot analysis (reference value: 100 %); type: functional; conditions: time 6 day

SMILES: Nc1cc(F)c(S(=O)(=O)N[C@H]2CNC2=O)cc1C(=O)Nc1ccc(F)c(C(F)F)c1
- EC50 [1]: 0.12 µM
- CC50 [2]: 173 µM
- selectivity ratio [3]: 1420
- remaining at 0.5 h [4]: 49%
- remaining at 0.5 h [5]: 51%
- remaining at 0.5 h [6]: 66.9%
- remaining at 4 h [7]: 43.2%
- remaining at 4 h [8]: 85.4%
- fraction unbound [9]: 0.0555
- fraction unbound [10]: 0.115
- IC50 [11]: > 100 µM
- IC50 [12]: > 100 µM
- IC50 [13]: > 100 µM
- IC50 [14]: > 100 µM
- IC50 [15]: > 100 µM
- IC50 [16]: > 100 µM
- IC50 [17]: 31.1 µM
- IC50 [18]: 44.5 µM
- IC50 [19]: 29.9 µM
- IC50 [20]: 26.1 µM
- IC50 [21]: > 10 µM
- EC50 [22]: 0.11 µM
- EC50 [23]: 0.55 µM
- CC50 [24]: > 100 µM
- CC50 [25]: > 100 µM
- selectivity ratio [26]: > 909
- selectivity ratio [27]: > 182
- half-life [28]: 2.37 h
- AUC(0-t) [29]: 2390 ng·h/mL
- AUC(0-inf) [30]: 2400 ng·h/mL
- clearance [31]: 35.2 mL/min/kg
- Vd [32]: 2.95 L/kg
- half-life [33]: 5.15 h
- AUC(0-t) [34]: 6880 ng·h/mL
- AUC(0-inf) [35]: 6950 ng·h/mL
- clearance [36]: 50.5 mL/min/kg
- Vd [37]: 4.16 L/kg
- Tmax [38]: 0.5 h
- Cmax [39]: 280 ng/mL
- half-life [40]: 2.8 h
- AUC(0-t) [41]: 620 ng·h/mL
- AUC(0-inf) [42]: 620 ng·h/mL
- bioavailability [43]: 26%
- Tmax [44]: 0.33 h
- Cmax [45]: 900 ng/mL
- half-life [46]: 5.52 h
- AUC(0-t) [47]: 1510 ng·h/mL
- AUC(0-inf) [48]: 1600 ng·h/mL
- bioavailability [49]: 21.9%
- Activity [50]: 13%
- fold change (FC) [51]: 8
- Activity [52]: 183%
- Activity [53]: 19%
- Activity [54]: No effect
- Activity [55]: No effect
- Activity [56]: No effect
- fold change (FC) [57]: ~2
- Activity [58]: Active; Compound Modestly Decreased Hbc Level
- Activity [59]: 129%
- Ratio [60]: 10%
